Test [1] relates to ischemia reperfusion (IR) rats. Conditions: cited from earlier work; for heart function: ischemia reperfusion (IR) rats.
The subject of a further test is cardiomyocytes. Particulars: IR conditions; cited from earlier work.
The subject of a further test is heart failure. Conditions: cited from earlier work.
The test system of test [2] is murine donor heart. Description: murine donor heart, 16 h of cold storage followed by 24 h of heterotopic transplantation. The test is classed as in vivo. Particulars: 50 μM in storage, n=8. How it is done: FIG. 4. […] Donor heart was isolated and store with or without canrenone for 16 hr, then the donor hearts were heterotopic transplanted to receipt cervical region. max dp/dt (contraction) and min dp/dt (relaxation) were calculated by average the max/min dp/dt for 1 minute period after 24 hr of transplantation using Millar Catheter. *P<0.05, n=8.

The subject of another test is pig donor heart. Description: pig donor heart, 10 h of cold storage followed by ex vivo perfusion. Conditions: 50 μM in HTK; 10 h of cold storage on ice, 30 minutes of reperfusion ex vivo; N=4. How it is done: FIG. 5. […] Pig hearts were perfused with 1 L HTK solution after cross clamp. Addition 2 L of HTK with or without canrenone were perfused and stored for 10 hr on ice. Pig hearts were perfused in ex vivo system with blood and Krebs buffer (1:4, hemoglobin concentration: […]). max dp/dt (contraction) and min dp/dt (relaxation) were calculated by average the max/min dp/dt for 10 minute period after 30 minutes of reperfusion using Millar Catheter. *P<0.05, **P<0.01. N=4.

Test [3] has as its system murine donor heart. Description: murine donor heart, 16 h of cold storage followed by ex vivo perfusion. Particulars: 50 μM, 60 minutes of reperfusion, N=8. The source says: FIG. 2. […] N=8 at each time point.
The subject of the next test is donor heart. Description: donor heart function after 16 hr of cold storage followed by reperfusion (VPA). The source says:
(§1) FIG. 7, panels A-C. […] Panels B and C.

The conditions of test [4]: large epidemiologic studies; cited from earlier work.
A further test has as its system heart. Particulars: rats; cited from earlier work.
The next test concerns Irg1. Description: Irg1 expression in cold-stored donor heart. Conditions: cold storage of donor heart, VPA treatment.
Text: as §1

The test system of test [5] is heart, kidneys, lung and liver. Particulars: cited from earlier work.
In test [6] the test system is mineralocorticoid receptor (MR). Particulars: cited from earlier work.

Consider `CCCCCCCC(=O)O` [octanoate], for which the heart functional recovery result in test [1] (160 mg/kg i.p. injected once at the time of reperfusion) is recorded as “significant heart functional recovery”. Moreover, the heart function result in test [1] is given as “improve heart function”.
Turning to `CC(=O)O` [acetate], the heart function result in [1] was “improve heart function”.
In the case of `Cc1sc2c(c1C)C(c1ccc(Cl)cc1)=N[C@@H](CC(=O)OC(C)(C)C)c1nnc(C)n1-2` [JQ-1], the protection of cardiomyocytes result in the test with cardiomyocytes was “may protect cardiomyocytes”. Also, the heart failure entry in the test on heart failure was “effectively halt heart failure”.
As to `C[C@]12CCC(=O)C=C1C=C[C@@H]1[C@@H]2CC[C@@]2(C)[C@H]1CC[C@@]21CCC(=O)O1` [Canrenone, canrenone], the “donor heart function, max dp/dt (contraction) and min dp/dt (relaxation)” value in the test on murine donor heart [2] is recorded as “improve murine donor heart function”; in the test with pig donor heart, “improve pig donor heart function”; with murine donor heart [3], “improves murine donor heart function”.
Turning to `CCCC(CCC)C(=O)O` [VPA, valproic acid], the “effect of VPA on donor heart function with Irg1 deletion” value in the test on donor heart (Irg1 deletion, 16 hr of cold storage followed by reperfusion) is “Irg1 deletion reduce the protective effect”. Moreover, the “donor heart ischemic tolerance” value in the test with donor heart (cold storage of donor heart) was “improve donor heart ischemic tolerance”. Besides, the “incidence of stroke and AMI” value in [4] is “reduce the incidence of stroke and AMI”. Besides, the “protection of the heart against AMI injury” value with heart is given as “protects the heart against AMI injury”. Besides, the Irg1 expression entry with Irg1 is given as “further stimulates Irg1 upregulation”. Further, the fibrosis result in test [5] is on record as “reduce fibrosis”. Moreover, the “acetylation of the mineralocorticoid receptor (MR)” value in [6] is “affect the acetylation of the mineralocorticoid receptor”.

The values above are taken from patent US20230241076A1, “HISTONE-ACETYLATION-MODULATING AGENTS FOR THE TREATMENT AND PREVENTION OF ORGAN INJURY” (The Regents of the University of Michigan, priority 2020, published 2023).
